The subject of this experiment is HT-29. Briefly: fluorometric resazurin-based anti-proliferative assay, HT-29. To be noted: Homo sapiens, HT-29 cancer cell line. How it is done: Determination of the IC-50 Concentration Against Various Cancer Cell Lines
The anti-proliferative activity of some representative example compounds of the present invention was determined in-vitro using a fluorometric resazurin-based assay. Cancer cell proliferation and viability was quantified upon reduction of non-fluorescent resazurin into the fluorescent dye resorufin by metabolically active cells as described in Strotmann, U. J., et al., The dehydrogenase assay with resazurin: Practical performance as a monitoring system and pH-dependent toxicity of phenolic compounds. Ecotox. Environ. Safety 25, 79-89, (1993).

Consider `CCCN(C(=O)C(NC(=O)C1CCCCN1C)[C@@H](C)CC)[C@H](C[C@@H](OC(C)=O)c1nc(C(=O)N[C@@H](Cc2ccccc2)C(=O)O)cs1)C(C)C` (stereo partly drawn), for which the IC50 is 4.5 ± 0.5 nM.

For `CC[C@H](C)C(NC(=O)C1CCCCN1C)C(=O)N(C)[C@H](C[C@@H](OC(C)=O)c1nc(C(=O)N[C@@H](Cc2ccccc2)C(=O)O)cs1)C(C)C` (stereo partly drawn), the IC50 was 3.2 ± 0.4 nM.

In turn, `CCCN(C(=O)C(NC(=O)C1CCCCN1C)[C@@H](C)CC)[C@H](C[C@@H](OCOC)c1nc(C(=O)N[C@@H](Cc2ccccc2)C(=O)O)cs1)C(C)C` (stereo partly drawn) showed an IC50 of 51.1 ± 2.6 nM. Compared with the last compound, the IC50 is about 16-fold higher.

`CCCN(C(=O)C(NC(=O)C1CCCCN1C)[C@@H](C)CC)[C@H](C[C@@H](OC(C)=O)c1nc(C(=O)N[C@@H](Cc2ccc(F)cc2)C(=O)O)cs1)C(C)C` (stereo partly drawn) displayed an IC50 of 1 ± 0.2 nM.

In turn, `CCCO[C@H](C[C@H](C(C)C)N(CCC)C(=O)C(NC(=O)C1CCCCN1C)[C@@H](C)CC)c1nc(C(=O)N[C@@H](Cc2ccc(O)cc2)C(=O)O)cs1` (stereo partly drawn) registered an IC50 of 3.1 ± 0.6 nM.

For the compound `CCCN(C(=O)C(NC(=O)C1CCCCN1C)[C@@H](C)CC)[C@H](C[C@@H](OC(C)=O)c1nc(C(=O)N[C@@H](Cc2ccccc2)C(=O)NCCO)cs1)C(C)C` (stereo partly drawn), the IC50 turned out to be 3.9 ± 0.7 nM.
